These results are taken from patent publication US20240197911A1, “Oral Pharmaceutical Composition, Method for Fabricating Thereof, and Kit for Treating Cancer” (National Tsing Hua University, priority 2022, published 2024).

For series [1], the system named is RAW264.7 cells. Nature of the series: Cellular uptake and trafficking by Mφ in vitro (CLSM). Type of series: cell-based, murine. To be noted: 10 μg/mL DOX. How it is done:
To investigate whether the oral pharmaceutical composition of the present disclosure can be phagocytosed and carried by Mφ, the cellular uptake and trafficking of free DOX, Comparative Example or Example 1 by Mφ in vitro are observed first. RAW264.7 cells, a murine Mφ cell line, are seeded in an eight-well chamber slide (ibidi) at a density of 5×10^4 cells per well and incubated overnight. The cells are then treated with each of the test samples at an equivalent dose of DOX (10 μg/mL). Following incubation for pre-determined periods (0, 2, 4, and 6 hours), test cells are washed with Dulbecco's phosphate-buffered saline (DPBS) and stained with LysoTracker™ Deep Red (Invitrogen) and Hoechst 33342 (Abcam) for 30 minutes in the incubator. The stained cells are then examined using confocal laser scanning microscopy (CLSM) (LSM 780, Carl Zeiss) to track the localization and accumulation of free DOX, the DOX fluorescent signal of Comparative Example or Example 1, and to determine the cell regulation process of free DOX, Comparative example and Example 1 in the RAW264.7 cells.

Series [2] concerns RAW264.7 cells. Nature of the series: Cytotoxicity on Mφ. Type of series: cell-based, murine. The conditions noted are these: different DOX concentrations, 24 hours. How it is done: The capacity of Mφ as a hitchhiking vehicle is strongly correlated with their viability following the uptake of drug-encapsulated particles. Therefore, the cytotoxicity of Example 1 on Mφ are further evaluated. The RAW264.7 cells are incubated with Comparative Example or Example 1 including different DOX concentrations for 24 hours, and the RAW264.7 cells treated with the same concentration of free DOX are used as Control (represents as “DOX”).

For the next series, the system named is orthotopic PDAC mice. Nature of the series: Antitumor efficacy of different treatments. Type of series: in vivo. The text has this:
To evaluate the antitumor efficacy of different treatments, the orthotopic PDAC mice are randomly assigned to the following groups: untreated control group (hereinafter referred to as “Control”), orally administered β-glucan group (hereinafter referred to as “βGlus”), intravenous injected DOX group (hereinafter referred to as “DOX”), orally administered Comparative Example group (hereinafter referred to as “Comparative Example”), and orally administered Example 1 group (hereinafter referred to as “Example 1”). In the groups of DOX, Comparative Example and Example 1, the DOX content of each dose is 10 mg/kg, while in the groups of βGlus and Example 1, the content of β-glucan of each dose is 40 mg/kg. The body weight changes of the orthotopic PDAC mice are recorded every other day. On day 21, the orthotopic PDAC mice are euthanized and their tumors are retrieved for analysis.

On to `COc1cccc2c1C(=O)c1c(O)c3c(c(O)c1C2=O)C[C@@](O)(C(=O)CO)C[C@@H]3O[C@H]1C[C@H](N)[C@H](O)[C@H](C)O1` [DOX, doxorubicin], for which, in the series with RAW264.7 cells [1], the “accumulation of DOX fluorescence in the cell nuclei” value is on record as “accumulated in their nuclei”. Besides, the cell viability result with RAW264.7 cells [2] is recorded as “decreases substantially in a dose-dependent manner”. For the same molecule, the tumor volume result in the series on orthotopic PDAC mice (day 21, three doses, DOX 10 mg/kg, β-glucan 40 mg/kg per dose, compared with Control) is on record as “substantially reduces tumor volumes”. Besides, the body weight result with orthotopic PDAC mice (intravenous DOX 10 mg/kg per dose, P<0.05) is recorded as “serious loss of body weight”.
